# From patent US10947222B2, “Indole derivatives useful as inhibitors of diacylglyceride O-acyltransferase 2” (Merck Sharp & Dohme Corp., priority 2016, dated 2021)
# Target: human DGAT2 (hDGAT2) (Homo sapiens (Human), UniProt Q96PD7)
# Test: DGAT2 enzymatic activity assay (triolein formation, LC/MS/MS)
# Type: biochemical
# Settings: Sf-9 membrane prep expressing hDGAT2; 25 μM diolein, 10 μM oleoyl-CoA; triolein by LC/MS/MS
# Procedure: Sf-9 insect cells were maintained in Grace's insect cell culture medium with 10% heated-inactivated fetal bovine serum, 1% Pluronic F-68 and 0.14 μg/ml Kanamycine sulfate in Erlenmeyer flasks at 28° C. in a shaker incubator. After infection with untagged baculovirus expressing human DGAT2 (hDGAT2) at multiplicity of infection (MOI) 0.1 for 48 hours, cells were harvested. Cell pellets were suspended in buffer containing 10 mM Tris-HCl (pH 7.5), 1 mM EDTA (pH 8.0), 250 mM sucrose and Complete Protease Inhibitor Cocktail (Roche Diagnostics Corp., Indianapolis, Ill.), and sonicated on ice. Membrane fractions were isolated by ultracentrifugation (100,000×g pellet), resuspended in the same buffer, and frozen (−80° C.) for later use. The protein concentration was determined with the BCA Protein Assay kit (Pierce Biotechnology Inc., Rockford, Ill.). Expression of protein levels was analyzed by immunoblotting with goat polyclonal DGAT2 antibody C-15 and donkey anti-goat IgG HRP (Santa Cruz Biotechnology, Inc., Santa Cruz, Calif.) followed by detection with ECL reagent (GE Healthcare, Piscataway, N.J.).
# LC/MS/MS analyses were performed using Thermal Fisher's LX4-TSQ Vantage system. This system consists of an Agilent binary high-performance liquid chromatography (HPLC) pumps and a TSQ Vantage triple quadrupole MS/MS instrument. For each sample, 2 μL samples from the top organic layer of in-plate liquid-liquid extraction were injected onto a Thermo Betabasic C4 column (2.1 mm×20 mm, 5 μm particle size). The samples were then eluted using the following conditions; mobile phase: methanol/water with 0.1% ammonium format=92/8 (v/v), flow rate: 1 mL/min, temperature: 25 C. Data was acquired in positive mode using a heated electrospray ionization (HESI) interface. The operational parameters for the TSQ Vantage MS/MS instrument were a spray voltage of 3000 V, capillary temperature of 280° C., vaporizer temperature 400° C., shealth gas 60 arbitrary unit, Aux gas 40 arbitrary units, S-lens 113 and collision gas 0.16 Pascals. […] (SRM) chromatograms of triolein (Q1:902.9>Q3:602.3) and internal standard (Q1:902.9>Q3:602.3) were collected for 40 sec. The peak area was integrated by Xcalibur Quan software. The ratio between the triolein generated in the reaction and spiked in internal standard was used to generate percentage inhibition and IC50 values. Compound percentage inhibition was calculated by the following formula: Inhibition %/=1−[(compound response−low control)/(high control−low control)]×100%. Potent compounds were titrated and IC50 were calculated by 4 parameter sigmoidal curve fitting formula.
# DGAT2 activity was determined by measuring the amount of enzymatic product triolein (1,2,3-Tri(cis-9-octadecenoyl)glycerol) using the membrane prep mentioned above. The assay was carried out in deep well 384 plates in a final volume of 40 μL at rt. The assay mixture contained the following: assay buffer (100 mM Tris.Cl, pH 7.0, 20 mM MgCl2, 5% ethanol), 25 μM of diolein, 10 μM of oleoyl-CoA and 10 ng/μL of DGAT2 membrane.
# human DGAT2 (hDGAT2), sequence (Q96PD7 whole entry): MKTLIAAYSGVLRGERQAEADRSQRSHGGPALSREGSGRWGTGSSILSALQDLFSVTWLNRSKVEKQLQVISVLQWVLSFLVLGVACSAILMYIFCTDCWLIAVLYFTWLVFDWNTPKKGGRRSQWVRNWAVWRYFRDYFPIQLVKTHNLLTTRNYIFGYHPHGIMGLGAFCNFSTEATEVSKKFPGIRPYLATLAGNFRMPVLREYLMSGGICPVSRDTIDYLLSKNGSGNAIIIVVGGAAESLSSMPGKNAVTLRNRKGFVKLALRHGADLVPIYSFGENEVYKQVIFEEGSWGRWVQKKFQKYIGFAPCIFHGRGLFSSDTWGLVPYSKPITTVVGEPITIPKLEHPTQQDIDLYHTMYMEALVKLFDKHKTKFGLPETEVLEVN
row,IC50,Structure (SMILES)
1,448 nM,"CC1(NC(=O)c2ccc3c(-c4ccccc4Cl)c(C#N)n(-c4ccc(F)cc4)c3c2)CCS(=O)(=O)C1 (single isomer, unassigned; enantiomer a) [Example 9-A, 3-(2-chlorophenyl)-2-cyano-1-(4-fluorophenyl)-N-(3-methyl-1,1-dioxidotetrahydrothiophen-3-yl)-1H-indole-6-carboxamide (Enantiomer A)]"
2,0.94 nM,"CC1(NC(=O)c2ccc3c(-c4cccc(OC(F)F)c4)cn(-c4ccc(F)cn4)c3c2)CCS(=O)(=O)C1 (single isomer, unassigned; enantiomer a) [Example 10-A, 3-(3-(difluoromethoxy)phenyl)-1-(5-fluoropyridin-2-yl)-N-(3-methyl-1,1-dioxidotetrahydrothiophen-3-yl)-1H-indole-6-carboxamide (enantiomer A)]"
3,2.1 nM,"O=C(NC1CCS(=O)(=O)C1)c1ccc2c(-c3cccc(C4CC4)c3)cn(-c3ccc(F)cn3)c2c1 (single isomer, unassigned; enantiomer a) [Example 11-A, 3-(3-cyclopropylphenyl)-N-(1,1-dioxidotetrahydrothiophen-3-yl)-1-(5-fluoropyridin-2-yl)-1H-indole-6-carboxamide (enantiomer A)]"
4,0.79 nM,"CC1(NC(=O)c2ccc3c(-c4cccc(C5CC5)c4)cn(-c4ccc(F)cn4)c3c2)CCS(=O)(=O)C1 (single isomer, unassigned; enantiomer a) [Example 12-A, 3-(3-cyclopropylphenyl)-1-(5-fluoropyridin-2-yl)-N-(3-methyl-1,1-dioxidotetrahydrothiophen-3-yl)-1H-indole-6-carboxamide (enantiomer A)]"
5,1.8 nM,"O=C(NC1CCS(=O)(=O)C1)c1ccc2c(-c3cccc(OC(F)F)c3)cn(-c3ccc(F)cn3)c2c1 (single isomer, unassigned; enantiomer a) [Example 13-A, 3-(3-(difluoromethoxy)phenyl)-N-(1,1-dioxidotetrahydrothiophen-3-yl)-1-(5-fluoropyridin-2-yl)-1H-indole-6-carboxamide (enantiomer A)]"
6,16 nM,"CC1(NC(=O)c2ccc3c(-c4ccccc4Cl)cn(-c4ccc(F)cn4)c3c2)CCS(=O)(=O)C1 (single isomer, unassigned; enantiomer a) [Example 14-A, 3-(2-chlorophenyl)-1-(5-fluoropyridin-2-yl)-N-(3-methyl-1,1-dioxidotetrahydrothiophen-3-yl)-1H-indole-6-carboxamide (Enantiomer A, Fast)]"
7,78 nM,"CC1(NC(=O)c2ccc3c(-c4ccccc4Cl)cn(-c4ncc(F)cn4)c3c2)CCS(=O)(=O)C1 (single isomer, unassigned; enantiomer a) [Example 15-A, 3-(2-chlorophenyl)-1-(5-fluoropyrimidin-2-yl)-N-(3-methyl-1,1-dioxidotetrahydrothiophen-3-yl)-1H-indole-6-carboxamide (enantiomer A, fast)]"
8,2.7 nM,"CC1(NC(=O)c2ccc3c(-c4cccc(C5CC5)c4)cn(-c4ncc(F)cn4)c3c2)CCS(=O)(=O)C1 (single isomer, unassigned; enantiomer a) [Example 16-A, 3-(3-cyclopropylphenyl)-1-(5-fluoropyrimidin-2-yl)-N-(3-methyl-1,1-dioxidotetrahydrothiophen-3-yl)-1H-indole-6-carboxamide (enantiomer A)]"
9,3.3 nM,"O=C(NC1CCS(=O)(=O)C1)c1ccc2c(-c3cccc(C4CC4)c3)cn(-c3ncc(F)cn3)c2c1 (single isomer, unassigned; enantiomer a) [Example 17-A, 3-(3-cyclopropylphenyl)-N-(1,1-dioxidotetrahydrothiophen-3-yl)-1-(5-fluoropyrimidin-2-yl)-1H-indole-6-carboxamide (enantiomer A)]"
10,1.7 nM,"CC1(NC(=O)c2ccc3c(-c4cccc(OC(F)F)c4)cn(-c4ncc(F)cn4)c3c2)CCS(=O)(=O)C1 (single isomer, unassigned; enantiomer a) [Example 18-A, 3-(3-(difluoromethoxy)phenyl)-1-(5-fluoropyrimidin-2-yl)-N-(3-methyl-1,1-dioxidotetrahydrothiophen-3-yl)-1H-indole-6-carboxamide (enantiomer A)]"
11,1.6 nM,"O=C(NC1CCS(=O)(=O)C1)c1ccc2c(-c3cccc(OC(F)F)c3)cn(-c3ncc(F)cn3)c2c1 (single isomer, unassigned; enantiomer a) [Example 19-A, 3-(3-(difluoromethoxy)phenyl)-N-(1,1-dioxidotetrahydrothiophen-3-yl)-1-(5-fluoropyrimidin-2-yl)-1H-indole-6-carboxamide (enantiomer A)]"
12,2.9 nM,"O=C(NC1CCS(=O)(=O)C1)c1ccc2c(-c3cccc(C4CC4)c3)cn(-c3ccc(F)cc3)c2c1 (single isomer, unassigned; enantiomer a) [Example 26-A, 3-(3-Cyclopropylphenyl)-N-(1,1-dioxidotetrahydrothiophen-3-yl)-1-(4-fluorophenyl)-1H-indole-6-carboxamide (Enantiomer A)]"
13,0.52 nM,"O=C(NC1CCS(=O)(=O)C1)c1ccc2c(-c3cccc(OC(F)F)c3)cn(-c3ccc(F)cc3)c2c1 (single isomer, unassigned; enantiomer a) [Example 27-A, 3-(3-(difluoromethoxy)phenyl)-N-(1,1-dioxidotetrahydrothiophen-3-yl)-1-(4-fluorophenyl)-1H-indole-6-carboxamide (enantiomer A)]"
14,6.6 nM,"CC1(NC(=O)c2ccc3c(-c4ccccc4Cl)cn(-c4ccc(F)cc4)c3c2)CCS(=O)(=O)C1 (single isomer, unassigned; enantiomer b) [Example 1-B, 3-(2-chlorophenyl)-1-(4-fluorophenyl)-N-(3-methyl-1,1-dioxidotetrahydrothiophen-3-yl)-1H-indole-6-carboxamide (Enantiomer B, slow)]"
15,692 nM,"Cc1c(-c2ccccc2Cl)c2ccc(C(=O)NC3(C)CCS(=O)(=O)C3)cc2n1-c1ccc(F)cc1 (single isomer, unassigned; enantiomer b) [Example 8-B, 3-(2-chlorophenyl)-1-(4-fluorophenyl)-2-methyl-N-(3-methyl-1,1-dioxidotetrahydrothiophen-3-yl)-1H-indole-6-carboxamide (Enantiomer B)]"
16,235 nM,"CC1(NC(=O)c2ccc3c(-c4ccccc4Cl)c(C#N)n(-c4ccc(F)cc4)c3c2)CCS(=O)(=O)C1 (single isomer, unassigned; enantiomer b) [Example 9-B, 3-(2-chlorophenyl)-2-cyano-1-(4-fluorophenyl)-N-(3-methyl-1,1-dioxidotetrahydrothiophen-3-yl)-1H-indole-6-carboxamide (Enantiomer B)]"
17,1 nM,"CC1(NC(=O)c2ccc3c(-c4cccc(OC(F)F)c4)cn(-c4ccc(F)cn4)c3c2)CCS(=O)(=O)C1 (single isomer, unassigned; enantiomer b) [Example 10-B, 3-(3-(difluoromethoxy)phenyl)-1-(5-fluoropyridin-2-yl)-N-(3-methyl-1,1-dioxidotetrahydrothiophen-3-yl)-1H-indole-6-carboxamide (enantiomer B)]"
18,0.73 nM,"CC1(NC(=O)c2ccc3c(-c4cccc(C5CC5)c4)cn(-c4ccc(F)cn4)c3c2)CCS(=O)(=O)C1 (single isomer, unassigned; enantiomer b) [Example 12-B, 3-(3-cyclopropylphenyl)-1-(5-fluoropyridin-2-yl)-N-(3-methyl-1,1-dioxidotetrahydrothiophen-3-yl)-1H-indole-6-carboxamide (enantiomer B)]"
19,9.8 nM,"CC1(NC(=O)c2ccc3c(-c4ccccc4Cl)cn(-c4ccc(F)cn4)c3c2)CCS(=O)(=O)C1 (single isomer, unassigned; enantiomer b) [Example 14-B, 3-(2-chlorophenyl)-1-(5-fluoropyridin-2-yl)-N-(3-methyl-1,1-dioxidotetrahydrothiophen-3-yl)-1H-indole-6-carboxamide (Enantiomer B, Slow)]"
